In test [1] the test system is H3K27me3 mark in HeLa cells (EZH2). The experiment in a line: H3K27me3 Alpha Hela Assay (AlphaLISA). It is filed as cell-based. The conditions noted are these: HeLa cell assay, Table 3 classes, read-out: EC50 Cellular Activity. The procedure, abridged: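 HeLa cells (1,000/well) treated with ten 3-fold compound doses for 72 h at 37 °C; lysates extracted and H3K27me3 detected by AlphaLISA with anti-K27me3 acceptor beads, biotinylated anti-H3 (3 nM) and streptavidin donor beads. EC50 from DMSO-normalized dose-response curves; duplicate plate assessed viability.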
In general terms: Alpha assays give light when donor and acceptor beads are brought close together.

A further test addresses PRC2 containing wt EZH2 (Homo sapiens (Human), UniProt Q15910). In words: EZH2 residence time assay (100-fold dilution of pre-formed enzyme-inhibitor complex). Format: biochemical. How it is done: EZH2 residence time assay: Compound residence times were assessed by monitoring the recovery of enzyme activity following a 100-fold dilution of pre-formed enzyme-inhibitor complex (dilution reaction), and comparing it to the activity of an undiluted control with the same final concentrations of all reagents (control reaction). Enzyme activity was measured by incorporation of ^3H-SAM into a biotinylated H3 peptide. […] For the control reaction, 0.202 nM PRC2 was pre-incubated with 1 μM activating peptide, 1.01 μM SAM, 1.01 μM ^3H-SAM, and compound at 6.06 times its Ki for 2 h in 138.6 μL of buffer, then the reaction was initiated by the addition of 1.4 μL 500 μM substrate peptide in water. Reactions were quenched at various time points spanning up to 10 hours, by transferring 8 μL aliquots from the reaction vessel to a plate containing 8 μL per well of STOP solution (50 mM Tris pH 8.5, 200 mM EDTA, 2 mM SAH). After the last time point, 12 μL of the quenched solutions were transferred to a streptavidin coated FlashPlate (PerkinElmer) containing 40 μL per well of STOP solution, incubated 1-8 h, washed, and read in a TopCount plate reader (PerkinElmer). A custom script was used to fit control reaction progress data to a straight line and dilution reaction progress data:
Where y is the product formed, t is the reaction time, vi is the initial velocity, vs is the steady state velocity, and kobs is the rate constant for the transition from the initial velocity phase of the curve to the steady state velocity phase of the curve. In fitting the dilution reaction progress data, vs was constrained to the slope of the line fitted to the control reaction progress data. The fitted value of kobs was then transformed into residence time:
Where τ is residence time, Ki is the inhibition constant, [EI] is the calculated equilibrium concentration of enzyme-inhibitor complex, [E] is the calculated equilibrium concentration of free enzyme, and [I] is the calculated equilibrium concentration of free inhibitor.

Where two headings read alike, the source gives them in different places.

The results in this text go back to patent publication US11459315B2, “Modulators of methyl modifying enzymes, compositions and uses thereof” (Constellation Pharmaceuticals, Inc., priority 2017, dated 2022).

Sequence of PRC2 containing wt EZH2 (Q15910 whole entry): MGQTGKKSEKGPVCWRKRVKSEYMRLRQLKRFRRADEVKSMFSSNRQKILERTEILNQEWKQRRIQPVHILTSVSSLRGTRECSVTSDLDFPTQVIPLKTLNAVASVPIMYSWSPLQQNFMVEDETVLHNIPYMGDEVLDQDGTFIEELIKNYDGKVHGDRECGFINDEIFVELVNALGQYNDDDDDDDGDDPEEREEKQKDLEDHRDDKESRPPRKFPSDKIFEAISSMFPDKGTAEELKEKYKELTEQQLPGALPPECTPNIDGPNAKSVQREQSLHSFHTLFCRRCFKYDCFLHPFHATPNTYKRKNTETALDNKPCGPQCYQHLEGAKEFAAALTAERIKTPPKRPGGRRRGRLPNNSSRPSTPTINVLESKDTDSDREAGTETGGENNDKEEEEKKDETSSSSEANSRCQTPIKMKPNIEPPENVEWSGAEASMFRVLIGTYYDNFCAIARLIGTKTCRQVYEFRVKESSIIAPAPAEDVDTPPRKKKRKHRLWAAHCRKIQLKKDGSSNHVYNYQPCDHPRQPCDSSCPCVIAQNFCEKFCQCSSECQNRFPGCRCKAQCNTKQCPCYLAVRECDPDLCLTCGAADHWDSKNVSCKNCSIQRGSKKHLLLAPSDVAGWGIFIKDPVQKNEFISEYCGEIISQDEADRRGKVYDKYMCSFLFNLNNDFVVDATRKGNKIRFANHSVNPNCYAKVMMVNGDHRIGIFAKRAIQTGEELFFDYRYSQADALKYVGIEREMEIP
Sequence of PRC2 containing wt EZH2 (O75530 whole entry partner): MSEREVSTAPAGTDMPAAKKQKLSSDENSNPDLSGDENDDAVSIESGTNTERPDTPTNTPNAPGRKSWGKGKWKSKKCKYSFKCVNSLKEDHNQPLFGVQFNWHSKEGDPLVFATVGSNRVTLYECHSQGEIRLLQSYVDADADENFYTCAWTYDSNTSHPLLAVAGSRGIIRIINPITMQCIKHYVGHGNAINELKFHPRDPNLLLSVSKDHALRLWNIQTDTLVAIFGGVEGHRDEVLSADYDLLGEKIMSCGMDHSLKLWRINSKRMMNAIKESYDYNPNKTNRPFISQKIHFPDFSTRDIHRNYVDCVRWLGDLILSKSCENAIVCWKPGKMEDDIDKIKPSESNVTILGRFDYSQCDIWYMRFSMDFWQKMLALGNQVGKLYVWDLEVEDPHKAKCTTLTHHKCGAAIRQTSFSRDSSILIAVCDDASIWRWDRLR
Sequence of PRC2 containing wt EZH2 (Q15022 whole entry partner): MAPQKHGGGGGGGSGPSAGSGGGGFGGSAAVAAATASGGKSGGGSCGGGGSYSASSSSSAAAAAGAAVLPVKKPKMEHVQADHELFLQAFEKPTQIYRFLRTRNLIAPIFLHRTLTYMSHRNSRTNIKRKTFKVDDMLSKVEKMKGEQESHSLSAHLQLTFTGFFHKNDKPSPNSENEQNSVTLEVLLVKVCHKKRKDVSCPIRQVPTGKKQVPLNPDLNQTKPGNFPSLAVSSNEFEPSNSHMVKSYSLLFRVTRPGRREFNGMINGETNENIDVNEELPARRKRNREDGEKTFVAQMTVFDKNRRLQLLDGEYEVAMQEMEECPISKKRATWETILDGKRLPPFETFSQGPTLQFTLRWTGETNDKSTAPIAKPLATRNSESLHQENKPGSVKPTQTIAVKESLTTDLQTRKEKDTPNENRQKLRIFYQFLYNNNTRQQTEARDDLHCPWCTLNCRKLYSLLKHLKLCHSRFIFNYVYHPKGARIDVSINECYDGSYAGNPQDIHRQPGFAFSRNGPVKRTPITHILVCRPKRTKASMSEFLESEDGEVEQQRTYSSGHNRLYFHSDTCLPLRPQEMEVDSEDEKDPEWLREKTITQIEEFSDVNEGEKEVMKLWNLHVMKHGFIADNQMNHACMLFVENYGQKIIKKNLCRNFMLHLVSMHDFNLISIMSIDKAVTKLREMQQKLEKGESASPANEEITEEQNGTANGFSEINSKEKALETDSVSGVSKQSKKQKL
Sequence of PRC2 containing wt EZH2 (Q09028 whole entry partner): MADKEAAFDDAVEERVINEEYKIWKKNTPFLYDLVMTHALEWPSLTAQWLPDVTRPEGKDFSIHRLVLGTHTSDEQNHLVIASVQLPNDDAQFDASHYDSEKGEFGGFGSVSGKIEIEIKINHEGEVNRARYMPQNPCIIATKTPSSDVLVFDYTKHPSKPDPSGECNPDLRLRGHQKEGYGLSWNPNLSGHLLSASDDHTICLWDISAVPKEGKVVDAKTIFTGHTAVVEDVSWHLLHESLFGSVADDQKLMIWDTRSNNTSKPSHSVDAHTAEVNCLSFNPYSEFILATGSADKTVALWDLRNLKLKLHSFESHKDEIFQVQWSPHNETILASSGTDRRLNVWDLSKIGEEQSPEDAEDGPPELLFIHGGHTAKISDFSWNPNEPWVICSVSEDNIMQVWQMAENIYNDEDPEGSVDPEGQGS
Sequence of PRC2 containing wt EZH2 (Q6ZN18 whole entry partner): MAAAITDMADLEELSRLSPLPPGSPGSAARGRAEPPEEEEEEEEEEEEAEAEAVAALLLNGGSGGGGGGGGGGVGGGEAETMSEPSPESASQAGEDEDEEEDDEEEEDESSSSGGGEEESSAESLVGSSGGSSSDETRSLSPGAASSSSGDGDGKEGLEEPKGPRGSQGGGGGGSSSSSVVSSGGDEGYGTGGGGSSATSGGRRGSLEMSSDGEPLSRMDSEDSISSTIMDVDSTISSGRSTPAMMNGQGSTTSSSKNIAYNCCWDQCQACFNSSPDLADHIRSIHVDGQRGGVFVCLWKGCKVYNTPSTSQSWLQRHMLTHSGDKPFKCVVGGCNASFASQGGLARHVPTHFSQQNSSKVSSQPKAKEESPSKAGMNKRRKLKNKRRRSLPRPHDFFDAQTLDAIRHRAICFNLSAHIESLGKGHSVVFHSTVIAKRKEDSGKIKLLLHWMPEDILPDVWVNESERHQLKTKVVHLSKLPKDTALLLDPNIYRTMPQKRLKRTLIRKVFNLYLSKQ

For `COC1CN(C2CCC([C@@H](C)n3c(C)c(C(=O)NCc4c(Cl)cc(C)[nH]c4=O)c4ccccc43)CC2)C1` (single isomer, unassigned), in test [1] (Homo sapiens, HeLa), the concentration giving a half-maximal response (EC50) (in general, the concentration that produces a half-maximal response) was 0.005 to 0.025 µM. The molecule further displayed a residence time at PRC2 containing wt EZH2 of 30 to 300 min.
For `COC1CN(C2CCC([C@@H](C)n3c(C)c(C(=O)NCc4c(C)cc(C)[nH]c4=O)c4ccccc43)CC2)C1` (single isomer, unassigned), in that order: 0.005 to 0.025 µM and 30 to 300 min.
With `CSc1cc(C)[nH]c(=O)c1CNC(=O)c1c(C)n([C@H](C)C2CCC(N3CC(OC(F)F)C3)CC2)c2ncccc12` (single isomer, unassigned), in test [1] (Homo sapiens, HeLa), the EC50 is less than 0.005 µM. In addition, the residence time on PRC2 containing wt EZH2 (read-out: Residence Time) is 300 to 2100 min.
Regarding `Cc1cc(Cl)c(CNC(=O)c2c(C)n([C@H](C)C3CCC(NC4(C)COC4)CC3)c3ccccc23)c(=O)[nH]1` (single isomer, unassigned) [drawing 201], the EC50 in test [1] was 0.025 to 0.125 µM. Also, at PRC2 containing wt EZH2, the “residence time” value is given as “D (a t value of less or equal than 0.5 hours)”.
As to `Cc1cc(Cl)c(CNC(=O)c2c(C)n([C@H](C)C3CCC(NC4(C)COC4)CC3)c3ccccc23)c(=O)[nH]1` (single isomer, unassigned) [drawing 202], the half-maximal effective concentration (EC50) in test [1] was 0.005 to 0.025 µM. Also, the “residence time” value on PRC2 containing wt EZH2 is “B (a t value of greater than 5 hours but less or equal than 35 hours)”.
For `Cc1cc(C)c(CNC(=O)c2c(C)n([C@H](C)C3CCC(NC4(C)COC4)CC3)c3ccccc23)c(=O)[nH]1` (single isomer, unassigned) [drawing 203], in test [1], the EC50 fell in the range of 0.025 to 0.125 µM. Besides, the “residence time” value on PRC2 containing wt EZH2 is reported as “D (a t value of less or equal than 0.5 hours)”.
The corresponding values for `Cc1cc(C)c(CNC(=O)c2c(C)n([C@H](C)C3CCC(NC4(C)COC4)CC3)c3ccccc23)c(=O)[nH]1` (single isomer, unassigned) [drawing 204] are less than 0.005 µM and “B (a t value of greater than 5 hours but less or equal than 35 hours)”.
For the molecule `CSc1cc(C)[nH]c(=O)c1CNC(=O)c1c(C)n([C@H](C)C2CCC(NC3(C)COC3)CC2)c2ccccc12` (single isomer, unassigned) [drawing 205], the EC50 in test [1] (Homo sapiens, HeLa) is less than 0.005 µM. In addition, the “residence time” value on PRC2 containing wt EZH2 was “A (value of greater than 35 hours)”.
As for `CSc1cc(C)[nH]c(=O)c1CNC(=O)c1c(C)n([C@H](C)C2CCC(NC3(C)COC3)CC2)c2ccccc12` (single isomer, unassigned) [drawing 206], in test [1], the EC50 fell in the range of 0.005 to 0.025 µM. For the same molecule, the “residence time” value at PRC2 containing wt EZH2 is listed as “B (a t value of greater than 5 hours but less or equal than 35 hours)”.
Take `COc1cc(C)[nH]c(=O)c1CNC(=O)c1c(C)n([C@H](C)C2CCC(NC3COC3)CC2)c2ccccc12` (single isomer, unassigned) [drawing 207]: the EC50 in test [1] is more than 0.125 µM. In addition, the residence time at PRC2 containing wt EZH2 (read-out: Residence Time) is less than 30 min.
As for `COc1cc(C)[nH]c(=O)c1CNC(=O)c1c(C)n([C@H](C)C2CCC(NC3COC3)CC2)c2ccccc12` (single isomer, unassigned) [drawing 208], the 50% effective concentration (EC50) in test [1] lay in the range of 0.025 to 0.125 µM. Moreover, the “residence time” value at PRC2 containing wt EZH2 is on record as “C (a t value of greater than 0.5 hours but less or equal than 5 hours)”.
Consider `Cc1cc(C)c(CNC(=O)c2c(C)n([C@H](C)C3CCC(NC4COC4)CC3)c3ccccc23)c(=O)[nH]1` (single isomer, unassigned) [drawing 209], for which, in test [1], the EC50 was more than 0.125 µM. Besides, on PRC2 containing wt EZH2 (read-out: Residence Time), the residence time is less than 30 min.
In the case of `Cc1cc(C)c(CNC(=O)c2c(C)n([C@H](C)C3CCC(NC4COC4)CC3)c3ccccc23)c(=O)[nH]1` (single isomer, unassigned) [drawing 210], in test [1], the EC50 fell in the range of 0.025 to 0.125 µM. Moreover, the “residence time” value on PRC2 containing wt EZH2 is “C (a t value of greater than 0.5 hours but less or equal than 5 hours)”.
`Cc1cc(Cl)c(CNC(=O)c2c(C)n([C@H](C)C3CCC(NC4COC4)CC3)c3ccccc23)c(=O)[nH]1` (single isomer, unassigned) [drawing 211]: the EC50 in test [1] was more than 0.125 µM. Moreover, the residence time at PRC2 containing wt EZH2 (read-out: Residence Time) was less than 30 min.
In the case of `Cc1cc(Cl)c(CNC(=O)c2c(C)n([C@H](C)C3CCC(NC4COC4)CC3)c3ccccc23)c(=O)[nH]1` (single isomer, unassigned) [drawing 212], in test [1], the EC50 was 0.025 to 0.125 µM. Further, the “residence time” value at PRC2 containing wt EZH2 is on record as “C (a t value of greater than 0.5 hours but less or equal than 5 hours)”.
For `CSc1cc(C)[nH]c(=O)c1CNC(=O)c1c(C)n([C@H](C)C2CCC(NC3COC3)CC2)c2ccccc12` (single isomer, unassigned) [drawing 213], in that order: less than 0.005 µM and “A (value of greater than 35 hours)”.
The corresponding values for `CSc1cc(C)[nH]c(=O)c1CNC(=O)c1c(C)n([C@H](C)C2CCC(NC3COC3)CC2)c2ccccc12` (single isomer, unassigned) [drawing 214] are 0.025 to 0.125 µM and “C (a t value of greater than 0.5 hours but less or equal than 5 hours)”.
For the molecule `COc1cc(C)[nH]c(=O)c1CNC(=O)c1c(C)n([C@H](C)C2CCC(N3CC(OC)C3)CC2)c2ccccc12` (single isomer, unassigned) [drawing 217], the EC50 in test [1] (Homo sapiens, HeLa) is more than 0.125 µM. This molecule came in with a residence time on PRC2 containing wt EZH2 of less than 30 min.
Consider `COc1cc(C)[nH]c(=O)c1CNC(=O)c1c(C)n([C@H](C)C2CCC(N3CC(OC)C3)CC2)c2ccccc12` (single isomer, unassigned) [drawing 218], for which, in test [1], the half-maximal effective concentration (EC50) was more than 0.125 µM. In addition, the “residence time” value on PRC2 containing wt EZH2 is “C (a t value of greater than 0.5 hours but less or equal than 5 hours)”.
With `COC1CN(C2CCC([C@@H](C)n3c(C)c(C(=O)NCc4c(SC)cc(C)[nH]c4=O)c4ccccc43)CC2)C1` (single isomer, unassigned) [drawing 219], the EC50 in test [1] (Homo sapiens, HeLa) is less than 0.005 µM. Moreover, the “residence time” value on PRC2 containing wt EZH2 is reported as “A (value of greater than 35 hours)”.
As to `COC1CN(C2CCC([C@@H](C)n3c(C)c(C(=O)NCc4c(SC)cc(C)[nH]c4=O)c4ccccc43)CC2)C1` (single isomer, unassigned) [drawing 220], the EC50 in test [1] lay in the range of 0.005 to 0.025 µM. The “residence time” value on PRC2 containing wt EZH2 is “C (a t value of greater than 0.5 hours but less or equal than 5 hours)”.
Consider `Cc1cc(Cl)c(CNC(=O)c2c(C)n([C@H](C)C3OCC(NC(C)(C)C)CO3)c3ccccc23)c(=O)[nH]1` (single isomer, unassigned) [drawing 221], for which the EC50 in test [1] (Homo sapiens, HeLa) fell in the range of 0.005 to 0.025 µM. In addition, the residence time at PRC2 containing wt EZH2 (read-out: Residence Time) was 30 to 300 min.
`CSc1cc(C)[nH]c(=O)c1CNC(=O)c1c(C)n([C@H](C)C2OCC(NC(C)(C)C)CO2)c2ccccc12` (single isomer, unassigned) [drawing 223]: the concentration giving a half-maximal response (EC50) in test [1] was 0.025 to 0.125 µM. Moreover, on PRC2 containing wt EZH2, the “residence time” value is on record as “D (a t value of less or equal than 0.5 hours)”.
The corresponding values for `CSc1cc(C)[nH]c(=O)c1CNC(=O)c1c(C)n([C@H](C)C2OCC(NC(C)(C)C)CO2)c2ccccc12` (single isomer, unassigned) [drawing 224] are less than 0.005 µM and “A (value of greater than 35 hours)”.
In the case of `Cc1cc(Cl)c(CNC(=O)c2c(C)n([C@H](C)C3OCC(NC4(C)COC4)CO3)c3ccccc23)c(=O)[nH]1` (single isomer, unassigned) [drawing 225], the EC50 in test [1] was more than 0.125 µM. The “residence time” value at PRC2 containing wt EZH2 was “D (a t value of less or equal than 0.5 hours)”.
The corresponding values for `Cc1cc(Cl)c(CNC(=O)c2c(C)n([C@H](C)C3OCC(NC4(C)COC4)CO3)c3ccccc23)c(=O)[nH]1` (single isomer, unassigned) [drawing 226] are 0.005 to 0.025 µM and “B (a t value of greater than 5 hours but less or equal than 35 hours)”.
For the molecule `CSc1cc(C)[nH]c(=O)c1CNC(=O)c1c(C)n([C@H](C)C2OCC(NC3(C)COC3)CO2)c2ccccc12` (single isomer, unassigned) [drawing 227], the EC50 in test [1] is less than 0.005 µM. Further, the “residence time” value at PRC2 containing wt EZH2 is given as “A (value of greater than 35 hours)”.
For `CSc1cc(C)[nH]c(=O)c1CNC(=O)c1c(C)n([C@H](C)C2OCC(NC3(C)COC3)CO2)c2ccccc12` (single isomer, unassigned) [drawing 228], in that order: more than 0.125 µM and “D (a t value of less or equal than 0.5 hours)”.
Take `Cc1cc(Cl)c(CNC(=O)c2c(C)n([C@H](C)C3OCC(N(C)C)CO3)c3ccccc23)c(=O)[nH]1` (single isomer, unassigned) [drawing 229]: the EC50 in test [1] is more than 0.125 µM. In addition, the residence time on PRC2 containing wt EZH2 (read-out: Residence Time) was less than 30 min.
Regarding `Cc1cc(Cl)c(CNC(=O)c2c(C)n([C@H](C)C3OCC(N(C)C)CO3)c3ccccc23)c(=O)[nH]1` (single isomer, unassigned) [drawing 230], the EC50 in test [1] fell in the range of 0.025 to 0.125 µM. For the same molecule, the “residence time” value at PRC2 containing wt EZH2 was “D (a t value of less or equal than 0.5 hours)”.
